Data on one substance can be found in patent US10758607B2, “Respiratory syncytial virus having cleavage-resistant G protein and related materials and methods” (The Research Institute at Nationwide Children's Hospital, priority 2015, dated 2020).

For experiment [1], the system named is G protein cleavage in RSV virions. Kind of experiment: Virion G protein of rgRSV-L208A grown in Vero cells (immunoblot). Format: cell-based. The note with it: purified through sucrose. The protocol:
To test the infectivity of Vero-derived virus with an uncleavable G in HAE cultures, the L208A mutation was incorporated into the whole virus. rgRSV and rgRSV-L208A were grown in HeLa or Vero cells, purified by sucrose gradient, and their virion G proteins assessed by immunoblot (FIG. 7A). For FIG. 7A, the L208A mutant G protein gene was inserted into the full-length RSV genome cDNA, in place of the wt G protein. The mutant RSV was rescued and grown in HeLa or Vero cells, purified by centrifugation through a 35% sucrose cushion, and G protein assessed as before. […] The viruses were titrated on HeLa cells and equivalent infectious units used to inoculate HeLa or HAE cultures. […] For FIG. 7B, virus was titrated on HeLa cells and equivalent infectious units were used to inoculate HAE and HeLa in parallel. Virus-infected (green) cells were counted at 24 (HeLa) or 48 (HAE) hpi.
The full-length RSV cDNA construct, RW30 (Kwilas et al., J Virol (2010) 84:7770-7781), was used as the backbone for a modification of the G protein gene at amino acid 208 from a […] to an alanine. RW30 was digested with restriction enzymes EcoICRI and SacII (Thermo Fisher Scientific Waltham, Mass.) to remove the G gene, and the remaining vector was isolated from an 0.5% agarose gel following electrophoresis and eluted from the gel fragment with the Qiaex II gel elution kit (Qiagen, Valencia, Calif.). […]

For experiment [2], the system named is RSV G protein cleavage in Vero cells. Kind of experiment: Cleavage of mutant G proteins transiently expressed in Vero cells (immunoblot). Format: cell-based. As to the method: The G gene in the region of amino acid 210 was modified by deleting stretches of amino acids in this region (200-211, 204-213, 206-215, 208-217, or 209-213). […] Most of the mutants almost completely ablate cleavage. They all share amino acids 208-211. However, A206-210 and A206-215, both of which bring together amino acids that can also serve as a cathepsin L cleavage site. For FIG. 6B, the mutated G protein genes were transiently expressed in Vero cells. 24 h post-transfection cells were harvested, lysed and proteins were separated by SDS-PAGE, blotted and probed with mAb to the G protein.
To identify which amino acids are important for cleavage, individual amino acids in and around this region were changed to alanine. These mutant G proteins were transiently expressed in Vero cells and assessed by immunoblot (FIG. 6C). For FIG. 6C, the mutated G protein genes were transiently expressed in Vero cells. 24 hours post-transfection cells were harvested, lysed and proteins were separated by SDS-PAGE, blotted and probed with mAb to the G protein.
The strain A2 G protein plasmid was mutagenized using synthetic double strand gBlock DNA (Integrated DNA Technologies). Van91I (Thermo Fisher) and Xho I (New England Biolabs) were used to digest plasmid and gBlock. Doubly-digested plasmid was isolated by agarose gel electrophoresis. Digested gBlock and eluted plasmid DNAs were ligated with T4 DNA ligase (Promega, Madison, Wis.), and transformed into One Shot MachI-T1 chemically competent bacteria (Life Technologies). Plasmids were extracted using HiSpeed or Plasmid Plus Maxi kits (Qiagen).
Wild type G or frG proteins were expressed in HeLa or Vero cells following plasmid transfection with FuGene HD (Promega) or Lipofectamine LTX (Life Technologies), respectively, in medium containing 2% FBS. In frG experiments, medium was collected and concentrated using Ultracel-10 K centrifugal filters (EMD Millipore, Billerica, Mass.). For other transfection experiments, Vero cells were transfected using Lipofectamine 3000 (Life Technologies) in medium containing 10% FBS. For all transfection experiments, cells were lysed and protein quantified by BCA assay. Equivalent HeLa or Vero cell lysate protein and equivalent volumes of concentrated proteins from the medium were analyzed by immunoblotting.

For the substance “L208: RSV strain A2 G protein with alanine substitution for L208”, in experiment [1], the “virion G protein cleavage” value is listed as “prevention of G protein cleavage”. In experiment [2], the “efficiency at inhibiting cleavage (rank among alanine substitutions)” value is recorded as “most efficient”. The “resistance to cleavage of alanine substitution G protein mutants” value in experiment [2] (24 hours post-transfection) is “partially to nearly completely resistant to cleavage”.
